Where two headings read alike, the source gives them in different places. Bridge positions count the residues as written; N and C are the ends. Square brackets hold non-standard residues; d marks the D form. Peptide text beside a SMILES is read from it. * marks the point of attachment. NMe2Val = CC(C)[C@@H](C(=O)*)N(C)C; NMeI = CC[C@H](C)[C@H](NC)C(=O)O; NMeT = CN[C@H](C(=O)O)[C@@H](C)O; NMeL = CN[C@@H](CC(C)C)C(=O)O; dHiv = CC(C)[C@@H](O)C(=O)O; NMeS = CN[C@@H](CO)C(=O)O; dNMeA = CN[C@H](C)C(=O)O
Key:
[1] = test system: MDA-MB-231 breast cancer cells; test: Cell viability, MTS end-point assay; format: cell-based, human; conditions: synthetic CbA, 72 h, vehicle 0.1% DMSO
Procedure: (§1) Figure 1 Cytotoxicity of synthetic and Pra-containing coibamides. (A) Structure of CbA. (B) Human MDA-MB-231 breast cancer cells were treated with increasing concentrations of synthetic CbA or vehicle (0.1% DMSO) and cell viability assessed at 72 h by an MTS end-point assay. (C) Structure of Photo-CbA. (D) Human HCT116 cells were treated with increasing concentrations of synthetic or photo-CbA in 0.1% DMSO, and cell viability assessed at 72 h by Alamar Blue assay. TEXT PRINTED IN THE PICTURE: (B) CbA: MDA-MB-231 cell line: IC50(nM): 1.6 | (D) CbA: HCT 116 cell line: IC50(nM): 29.2 | (D) Photo-CbA: HCT 116 cell line: IC50(nM): 6.5
A431, HEK293T, and HEK293FRT cells were cultured in DMEM supplemented with 10% FBS. HCT-116 cells were cultured in McCoy’s 5A media supplemented with 10% FBS. U87-MG cells were cultured in Minimum Essential Media (MEM) with 10% FBS, L-glutamine (2 mM), and 1% penicillin and streptomycin. MDA-MB-231 cells were cultured in MEM with Earl’s salts plus 1% penicillin/streptomycin and 10% FBS. All cell lines were incubated at 37 °C under 5% CO2. The activity of synthetic coibamide and photoaffinity analogues was tested in MDA-MB-231 and A549 cells after 72 h by MTS assay. […] Viability was estimated by the addition of Alamar Blue (Life Technologies) and measuring fluorescence after a further 4 h. […]

[2] = test system: HCT116 resistant line 100-3; test: Cell viability, Alamar Blue, CbA-resistant line; format: cell-based, human; conditions: 72 h, n = 4 (Figure 5A), read-out: HCT116 Resistant lines IC50 (100-3)
Procedure: (§2) Figure 5 CbA mode of inhibition is specific compared to known Sec61 inhibitors. (A) Cell viability was measured by Alamar Blue assay (mean ± SD, n = 4, all cell lines assayed simultaneously) for HCT-116 cell lines isolated on the basis of CbA resistance in the presence of concentration series of indicated compounds. (B) Cell viability was measured by Alamar Blue assay (mean ± SD, n = 4, all cell lines assayed simultaneously) for HEK293FRT cells stably expressing Sec61α mutants in the presence of concentration series of indicated compounds. (C) Comparison of published NCI60 data for CbA,[3] AprA,[11] and IpoF.[33] The heat map was derived by plotting each GI50 value divided by the median GI50 for that compound. X indicates a cell line that was not tested. Closed arrowhead indicates cell lines with most notable differences across the three compounds. TEXT PRINTED IN THE PICTURE: (A) CbA: HCT116 Resistant lines IC50(nM): 24 (WT); HCT116 Resistant lines IC50(nM): 6500 (100-1); HCT116 Resistant lines IC50(nM): 7500 (100-2); HCT116 Resistant lines IC50(nM): 5800 (100-3); HCT116 Resistant lines IC50(nM): 7800 (100-4); HCT116 Resistant lines IC50(nM): 3800 (100-5) | (A) AprA: HCT116 Resistant lines IC50(nM): 80 (WT); HCT116 Resistant lines IC50(nM): >10000 (100-1); HCT116 Resistant lines IC50(nM): >10000 (100-2); HCT116 Resistant lines IC50(nM): >10000 (100-3); HCT116 Resistant lines IC50(nM): >10000 (100-4); HCT116 Resistant lines IC50(nM): >10000 (100-5) | (B) CbA: Sec61α engineered lines IC50(nM): 12 (WT); Sec61α engineered lines IC50(nM): 83 (R66I); Sec61α engineered lines IC50(nM): 20 (T86M); Sec61α engineered lines IC50(nM): 81 (S82P) | (B) AprA: Sec61α engineered lines IC50(nM): 24 (WT); Sec61α engineered lines IC50(nM): >10000 (R66I); Sec61α engineered lines IC50(nM): 2500 (T86M); Sec61α engineered lines IC50(nM): 4700 (S82P)
(§3) A431, HEK293T, and HEK293FRT cells were cultured in DMEM supplemented with 10% FBS. HCT-116 cells were cultured in McCoy’s 5A media supplemented with 10% FBS. U87-MG cells were cultured in Minimum Essential Media (MEM) with 10% FBS, L-glutamine (2 mM), and 1% penicillin and streptomycin. MDA-MB-231 cells were cultured in MEM with Earl’s salts plus 1% penicillin/streptomycin and 10% FBS. All cell lines were incubated at 37 °C under 5% CO2. The activity of synthetic coibamide and photoaffinity analogues was tested in MDA-MB-231 and A549 cells after 72 h by MTS assay. All other cell viability assays were performed by seeding PerkinElmer Viewplate-96 plates at a density of 2.5 × 10^3 cells per well. Cells were allowed 24 h to adhere and then treated with indicated concentrations of inhibitors or vehicle (0.1% DMSO) for a further 72 h. Viability was estimated by the addition of Alamar Blue (Life Technologies) and measuring fluorescence after a further 4 h. Pulse-labeling experiments were performed by seeding six-well plates with 5 × 10^5 cells per well and allowing 24 h for cells to adhere. Cells were washed twice with PBS, then exchanged into Met-Cys free media with indicated concentrations of inhibitors for 30 min. 100 μCi of PerkinElmer EXPRE^35S^35S Protein Labeling Mix was then added per well. Media wer collected, and the cells were harvested by scraping them into ice cold PBS after 30 min. Total protein was acquired by RIPA extraction from the cell pellet. Glycosylated protein was acquired by Concanavalin A purification, and secreted protein was acquired by TCA precipitation of the media. […]

[3] = test system: HCT116 resistant line 100-4; test: Cell viability, Alamar Blue, CbA-resistant line; format: cell-based, human; conditions: 72 h, n = 4 (Figure 5A), read-out: HCT116 Resistant lines IC50 (100-4)
Procedure: as §2, §3

[4] = test system: HCT116 resistant line 100-2; test: Cell viability, Alamar Blue, CbA-resistant line; format: cell-based, human; conditions: 72 h, n = 4 (Figure 5A), read-out: HCT116 Resistant lines IC50 (100-2)
Procedure: as §2, §3

[5] = test system: HCT116 resistant line 100-1; test: Cell viability, Alamar Blue, CbA-resistant line; format: cell-based, human; conditions: 72 h, n = 4 (Figure 5A), read-out: HCT116 Resistant lines IC50 (100-1)
Procedure: as §2, §3

[6] = test system: HCT116 resistant line 100-5; test: Cell viability, Alamar Blue, CbA-resistant line; format: cell-based, human; conditions: 72 h, n = 4 (Figure 5A), read-out: HCT116 Resistant lines IC50 (100-5)
Procedure: as §2, §3

[7] = test system: A549 human lung adenocarcinoma cells; conditions: 72 h
HCT116 cells = test: Cell viability, Alamar Blue assay; format: cell-based, human
Procedure: as §1
(§4) Figure 5 CbA mode of inhibition is specific compared to known Sec61 inhibitors. (A) Cell viability was measured by Alamar Blue assay (mean ± SD, n = 4, all cell lines assayed simultaneously) for HCT-116 cell lines isolated on the basis of CbA resistance in the presence of concentration series of indicated compounds. (B) Cell viability was measured by Alamar Blue assay (mean ± SD, n = 4, all cell lines assayed simultaneously) for HEK293FRT cells stably expressing Sec61α mutants in the presence of concentration series of indicated compounds. (C) Comparison of published NCI60 data for CbA,[3] AprA,[11] and IpoF.[33] The heat map was derived by plotting each GI50 value divided by the median GI50 for that compound. X indicates a cell line that was not tested. Closed arrowhead indicates cell lines with most notable differences across the three compounds. […]
(§5) A431, HEK293T, and HEK293FRT cells were cultured in DMEM supplemented with 10% FBS. […] Viability was estimated by the addition of Alamar Blue (Life Technologies) and measuring fluorescence after a further 4 h. […]

[8] = target: HEK293FRT cells stably expressing Sec61α WT (Homo sapiens, UniProt P61619); test: Cell viability, Alamar Blue, Sec61α engineered lines; format: cell-based; conditions: 72 h, n = 4 (Figure 5B)
Procedure: as §4, §5

HEK293FRT cells stably expressing Sec61α WT, sequence (P61619 whole entry): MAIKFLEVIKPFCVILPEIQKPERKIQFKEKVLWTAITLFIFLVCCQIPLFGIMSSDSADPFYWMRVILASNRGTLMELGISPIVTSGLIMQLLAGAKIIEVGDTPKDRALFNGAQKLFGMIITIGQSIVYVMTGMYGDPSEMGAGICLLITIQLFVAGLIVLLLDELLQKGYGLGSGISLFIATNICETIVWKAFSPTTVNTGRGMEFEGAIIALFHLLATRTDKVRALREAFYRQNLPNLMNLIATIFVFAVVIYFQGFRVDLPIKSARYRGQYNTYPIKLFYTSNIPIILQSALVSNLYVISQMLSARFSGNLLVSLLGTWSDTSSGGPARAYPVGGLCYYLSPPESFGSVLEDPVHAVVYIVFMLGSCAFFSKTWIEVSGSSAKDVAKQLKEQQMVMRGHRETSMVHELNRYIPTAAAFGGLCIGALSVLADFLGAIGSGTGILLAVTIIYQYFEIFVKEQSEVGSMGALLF

CC[C@H](C)[C@H]1C(=O)N[C@@H](C)C(=O)N(C)[C@@H](CC(C)C)C(=O)N[C@@H](Cc2ccc(OC)cc2)C(=O)N(C)[C@H](C)C(=O)O[C@H](C)[C@H](N(C)C(=O)[C@H](CC(C)C)N(C)C(=O)[C@H](COC)N(C)C(=O)[C@H](OC(=O)[C@H](C(C)C)N(C)C)C(C)C)C(=O)N(C)[C@@H](COC)C(=O)N1C [CbA, Coibamide A] (NMe2Val-[dHiv][NMeS](Me)[NMeL][NMeT][NMeS](Me)[NMeI]A[NMeL]Y(Me)[dNMeA]; ester 4-C)
IC50 [1]: 1.6 nM
IC50 [2]: 5800 nM
IC50 [3]: 7800 nM
IC50 [4]: 7500 nM
IC50 [5]: 6500 nM
IC50 [6]: 3800 nM
IC50 [7]: 2.1 ± 0.7 nM
IC50 (HCT116 cells; HCT116, 72 h, 0.1% DMSO (Figure 1D), read-out: IC50): 29.2 nM
IC50 (HCT116 cells; HCT116 WT, 72 h, mean ± SD, n = 4 (Figure 5A), read-out: HCT116 Resistant lines IC50 (WT)): 24 nM
IC50 [8]: 12 nM

— PMC7497630, “Coibamide A Targets Sec61 to Prevent Biogenesis of Secretory and Membrane Proteins” (ACS Chemical Biology, 2020)
